Legend:
Experiment in all cases: Etest MIC of indicator carbapenems on MH II agar without/with PMBN
Format in all cases: cell-based
[1] = test system: E. aerogenes 1204050 (membrane impermeability); settings: in µg/mL
Description: (§1) The determinations of antibiotic MIC were carried out on solid culture media with the Etest® method. To do this, Etest® strips (bioMérieux, France) were used: • Etest® Imipenem IM 32, and • Etest® Ertapenem ETP 32, and also solid culture media, differing from one another by virtue of their non-inhibitory concentrations of PMBN.
(§2) These solid culture media are prepared in Petri dishes (0=145 mm; V=50 ml) on a base of MH II Agar (Becton Dickinson®, United States), more or less supplemented with PMBN. The PMBN concentrations range from 0 up to concentrations equivalent to one fifth of the MIC of PMBN (⅕ MICPMBN).
(§3) Using a swab and the Retro C80™ rota-plater (bioMérieux, France), the culture media were inoculated with the bacteria, originating from an inoculum of 0.5 McFarland, prepared in 0.85% NaCl solution from colonies subcultured the day before on MH II agar.
(§4) The various Etest® strips are then deposited on the surface of the culture media. After 16 to 20 hours of incubation at 35° C., the MICS were read.
(§5) By way of indicator carbapenems according to the invention, in addition to imipenem (IM) and ertapenem (ETP), meropenem (MP) was also tested. Like the other two antibiotics, meropenem was used in the form of Etest® strips (Etest® Meropenem MP 32 from the company bioMérieux, France).
(§6) The methods used to prepare the new culture media and to carry out the antibiotic-sensitivity tests are identical to those described above.

[2] = test system: E. cloacae 1008080 (IMP producer); settings: in µg/mL
Description: as §1, §2, §3, §4, §5, §6

[3] = test system: E. cloacae 1109137 (OXA-48 producer)
Description: as §1, §2, §3, §4, §5, §6

[4] = test system: E. cloacae 1204051 (membrane impermeability)
Description: as §1, §2, §3, §4, §5, §6

[5] = test system: E. cloacae 1204052 (membrane impermeability)
Description: as §1, §2, §3, §4, §5, §6

[6] = test system: E. cloacae 1204053 (membrane impermeability)
Description: as §1, §2, §3, §4, §5, §6

[7] = test system: E. cloacae 1204056 (membrane impermeability)
Description: as §1, §2, §3, §4, §5, §6

[8] = test system: E. cloacae 1204058 (membrane impermeability); settings: in µg/mL
Description: as §1, §2, §3, §4, §5, §6

[9] = test system: E. cloacae 1204153 (membrane impermeability); settings: in µg/mL
Description: as §1, §2, §3, §4, §5, §6

[10] = test system: E. coli 1008078 (VIM producer)
Description: as §1, §2, §3, §4, §5, §6

[11] = test system: E. coli SAB 100 (porin−); settings: Escherichia coli
Description: as §1, §2, §3, §4, §5, §6

[12] = test system: E. coli SAB 108 (porin−); settings: Escherichia coli
Description: as §1, §2, §3, §4, §5, §6

[13] = test system: K. pneumoniae 1012142 (KPC-2 producer)
Description: as §1, §2, §3, §4, §5, §6

[14] = test system: K. pneumoniae 1103183 (NDM producer)
Description: as §1, §2, §3, §4, §5, §6

[15] = test system: K. pneumoniae 1204035 (membrane impermeability); settings: in µg/mL
Description: as §1, §2, §3, §4, §5, §6

[16] = test system: K. pneumoniae 1204036 (membrane impermeability)
Description: as §1, §2, §3, §4, §5, §6

[17] = test system: K. pneumoniae 1204039 (membrane impermeability)
Description: as §1, §2, §3, §4, §5, §6

[18] = test system: K. pneumoniae KP 55 (porin−); settings: Klebsiella pneumoniae
Description: as §1, §2, §3, §4, §5, §6

[19] = test system: K. pneumoniae KP 63 (porin−); settings: Klebsiella pneumoniae
Description: as §1, §2, §3, §4, §5, §6

In the case of `C[C@@H](O)[C@H]1C(=O)N2C(C(=O)O)=C(S[C@@H]3CN[C@H](C(=O)Nc4cccc(C(=O)O)c4)C3)[C@H](C)[C@H]12` [ETP, ertapenem], the MIC ([1]; [PMBN] 0, Table 4a) is reported as >32, the MIC ([1]; [PMBN] 100, Table 4a) is reported as >32 and the MIC ([1]; [PMBN] 200, Table 4a) is reported as >32. The MIC ([1]; [PMBN] 300, Table 4a) was >32, the MIC ([2]; [PMBN] 0, Table 4a) was 16 and the MIC ([2]; [PMBN] 100, Table 4a) was 24. The MIC ([2]; [PMBN] 200, Table 4a) was >32, the MIC ([2]; [PMBN] 300, Table 4a) was 12-24 and the MIC ([3]; [PMBN] 0, Table 4a) was 24 µg/mL. For the same molecule, the MIC ([3]; [PMBN] 200, Table 4a) was 12 µg/mL, the MIC ([3]; [PMBN] 300, Table 4a) was > 32 µg/mL and the MIC ([4]; [PMBN] 0, Table 4a) was > 32 µg/mL. It also gave an MIC ([4]; [PMBN] 100, Table 4a) of 12 µg/mL, an MIC ([4]; [PMBN] 200, Table 4a) of 4 µg/mL and an MIC ([4]; [PMBN] 300, Table 4a) of 3 µg/mL. For the same molecule, the MIC ([5]; [PMBN] 0, Table 4a) was > 32 µg/mL, the MIC ([5]; [PMBN] 100, Table 4a) was 12 µg/mL and the MIC ([5]; [PMBN] 200, Table 4a) was 8 µg/mL. For the same molecule, the MIC ([5]; [PMBN] 300, Table 4a) was 3 µg/mL, the MIC ([6]; [PMBN] 0, Table 4a) was > 32 µg/mL and the MIC ([6]; [PMBN] 100, Table 4a) was > 32 µg/mL. For the same molecule, the MIC ([6]; [PMBN] 200, Table 4a) was > 32 µg/mL, the MIC ([6]; [PMBN] 300, Table 4a) was 4 µg/mL and the MIC ([7]; [PMBN] 0, Table 4a) was > 32 µg/mL. The MIC ([7]; [PMBN] 100, Table 4a) was 12 µg/mL, the MIC ([7]; [PMBN] 200, Table 4a) was 3 µg/mL and the MIC ([7]; [PMBN] 300, Table 4a) was 1 µg/mL. The MIC ([8]; [PMBN] 0, Table 4a) was >32, the MIC ([8]; [PMBN] 100, Table 4a) was 8-12 and the MIC ([8]; [PMBN] 300, Table 4a) was 0.75. For the same molecule, the MIC ([9]; [PMBN] 0, Table 4a) was >32, the MIC ([9]; [PMBN] 100, Table 4a) was 8 and the MIC ([9]; [PMBN] 200, Table 4a) was 4. It also gave an MIC ([9]; [PMBN] 300, Table 4a) of 3, an MIC ([10]; [PMBN] 0, Table 4a) of 2 µg/mL and an MIC ([10]; [PMBN] 100, Table 4a) of 0.75 µg/mL. It also gave an MIC ([10]; [PMBN] 200, Table 4a) of 0.5 µg/mL, an MIC ([10]; [PMBN] 300, Table 4a) of 0.38 µg/mL and an MIC ([11]; [PMBN] 0) of 1.5 µg/mL. For the same molecule, the MIC ([11]; [PMBN] 50 μg/ml) was 0.19 µg/mL, the MIC ([11]; [PMBN] 100 μg/ml) was 0.19 µg/mL and the MIC ([11]; [PMBN] 150 μg/ml) was 0.125 µg/mL. The MIC ([11]; [PMBN] 200 μg/ml) was 0.125 µg/mL, the MIC ([12]; [PMBN] 0) was 4 µg/mL and the MIC ([12]; [PMBN] 50 μg/ml) was 0.25 µg/mL. The MIC ([12]; [PMBN] 100 μg/ml) was 0.19 µg/mL, the MIC ([12]; [PMBN] 150 μg/ml) was 0.19 µg/mL and the MIC ([12]; [PMBN] 200 μg/ml) was 0.19 µg/mL. For the same molecule, the MIC ([13]; [PMBN] 0, Table 4a) was 32 µg/mL, the MIC ([13]; [PMBN] 100, Table 4a) was > 32 µg/mL and the MIC ([13]; [PMBN] 200, Table 4a) was > 32 µg/mL. The MIC ([13]; [PMBN] 300, Table 4a) was > 32 µg/mL, the MIC ([14]; [PMBN] 0, Table 4a) was > 32 µg/mL and the MIC ([14]; [PMBN] 100, Table 4a) was > 32 µg/mL. For the same molecule, the MIC ([14]; [PMBN] 200, Table 4a) was 32 µg/mL, the MIC ([14]; [PMBN] 300, Table 4a) was 32 µg/mL and the MIC ([15]; [PMBN] 0, Table 4a) was >32. For the same molecule, the MIC ([15]; [PMBN] 100, Table 4a) was 8, the MIC ([15]; [PMBN] 200, Table 4a) was 8-12 and the MIC ([15]; [PMBN] 300, Table 4a) was 6. For the same molecule, the MIC ([16]; [PMBN] 0, Table 4a) was > 32 µg/mL, the MIC ([16]; [PMBN] 100, Table 4a) was > 32 µg/mL and the MIC ([16]; [PMBN] 200, Table 4a) was > 32 µg/mL. For the same molecule, the MIC ([16]; [PMBN] 300, Table 4a) was > 32 µg/mL, the MIC ([17]; [PMBN] 0, Table 4a) was 2 µg/mL and the MIC ([17]; [PMBN] 100, Table 4a) was 1.5 µg/mL. For the same molecule, the MIC ([17]; [PMBN] 200, Table 4a) was 1.5 µg/mL, the MIC ([17]; [PMBN] 300, Table 4a) was 1 µg/mL and the MIC ([18]; [PMBN] 0) was 0.38 µg/mL. For the same molecule, the MIC ([18]; [PMBN] 50 μg/ml) was 0.25 µg/mL, the MIC ([18]; [PMBN] 100 μg/ml) was 0.19 µg/mL and the MIC ([18]; [PMBN] 150 μg/ml) was 0.125 µg/mL. For the same molecule, the MIC ([18]; [PMBN] 200 μg/ml) was 0.064 µg/mL, the MIC ([19]; [PMBN] 0) was 1 µg/mL and the MIC ([19]; [PMBN] 50 μg/ml) was 0.5 µg/mL. For the same molecule, the MIC ([19]; [PMBN] 100 μg/ml) was 0.38 µg/mL, the MIC ([19]; [PMBN] 150 μg/ml) was 0.19 µg/mL and the MIC ([19]; [PMBN] 200 μg/ml) was 0.125 µg/mL.
